Test [1] concerns 27-mer RNA/DNA chimeric corresponding to the 16S rRNA A site. Briefly: ESI-MS and CID/CAD MS-MS protection assay on chimeric 27-mer RNA/DNA (ion trap). It counts as binding, prokaryotic. As for the experimental part:
In order to study the structure of the 27-mer RNA corresponding to the 16S rRNA A site, of sequence 5′-GGC-GUC-ACA-CCU-UCG-GGU-GAA-GUC-GCC-3′ (SEQ ID NO:1) a chimeric RNA/DNA molecule that incorporates three deoxyadenosine (dA) residues at positions 7, 20 and 21 was prepared using standard nucleic acid synthesis protocols on an automated synthesizer. This chimeric nucleic acid of sequence 5′-GGC-GUC-dACA-CCU-UCG-GGU-GdAdA-GUC-GCC-3′ (SEQ ID NO:2) was injected as a solution in water into an electrospray mass spectrometer. […] These fragments correspond to the w7^(2−), w8^(2−) and the a7-B^(2−) fragments respectively, that are formed by cleavage of the chimeric nucleic acid adjacent to each of the incorporated dA residues. […]
Next, another sample of the chimeric nucleic acid was treated with a solution of paromomycin and the resulting mixture analyzed by ESI followed by CID using a mass spectrometer. […]
1 mL (0.6 O.D.) of a solution of a 27-mer RNA containing 3 dA residues (from Example 1) was diluted into 500 μL of 1:1 isopropanol:water and adjusted to provide a solution that was 150 mM in ammonium acetate, pH 7.4 and wherein the RNA concentration was […]. […] This mixture was then subjected to ESI-MS and the ionization of the nucleic acid and its complex monitored in the mass spectrum. […]

Test [2] concerns the target prokaryotic 16S rRNA (the A-site). The settings on record: cited from earlier work.

Entries after “also recorded” stand apart in the source; their conditions may differ. Like-named read-outs stand apart in the source and are kept apart here.

We go through one compound from patent publication US6656690B2, “Mass spectrometric methods for biomolecular screening” (priority 1998, dated 2003).

Consider `NC[C@@H]1O[C@H](O[C@H]2[C@@H](O)[C@H](O[C@@H]3[C@@H](O)[C@H](N)C[C@H](N)[C@H]3O[C@H]3O[C@H](CO)[C@@H](O)[C@H](O)[C@H]3N)O[C@@H]2CO)[C@H](N)[C@@H](O)[C@@H]1O` [paromomycin], for which, in test [1] (same activation energy as free RNA), the “fragmentation at dA sites of the complex under CID/CAD (protection of binding site)” value is given as “no fragmentation at the dA sites; also recorded: No cleavage was found to occur; also recorded: No significant fragment ions; also recorded: No fragment ions are detected”. Besides, the “complex formation / binding strength with chimeric 27-mer (in words)” value in test [1] (target 10 mM as printed, paromomycin and library members ~150 nM) is listed as “only a 1:1 complex”. The Kd in test [2] (16S A-site, previously reported, listed as Paromomycin, read-out: literature / solution KD) is roughly 0.2 µM; in test [2] (16S A-site, previously reported, read-out: literature / solution KD), 0.2 µM; in test [2] (Recht 1996, Wong 1998, Wang 1997, read-out: reported kD values) it was roughly 0.2 µM; in test [2] (test 27-mer RNA, known from other experiments or literature, read-out: binding affinity) it was roughly 1 µM.
